Test results: patent US9700552B2, “Pharmaceutical compositions for treatment of addiction” (priority 2008, dated 2017)
Like-named read-outs stand apart in the source and are kept apart here.

How the values were obtained:
[1] = in vivo; cited from earlier work
[2] = Solubility of naltrexone in adhesive matrix; assay type: physicochemical
Text: […]. Adhesive matrices having such Hildebrand solubility parameters are typically, although not necessarily polyacrylate copolymers. […].

[3] = in vivo, cited from earlier work

Compound | mean elimination half-life [1] | solubility of naltrexone in adhesive ([2]; in DURO-TAK® 87-900A) | solubility of naltrexone in adhesive ([2]; in DURO-TAK® 87-2510) | safety statement [3] | safety statement ([3]; listed as Naltrexone)
Oc1ccc2c3c1O[C@H]1[C@H](O)CC[C@@]4(O)[C@@H](C2)N(CC2CC2)CC[C@]314 [6-β-naltrexol] | thirteen | – | – | – | –
O=C1CC[C@@]2(O)[C@H]3Cc4ccc(O)c5c4[C@@]2(CCN3CC2CC2)[C@H]1O5 [naltrexone] | – | 5.851 g/100 g of polymer | 3.067 g/100 g of polymer | major liver toxin | very few and minor side effects
